Blank lines part the entries; values can stand above or below the compound they belong to.
Experiments:
[1] = molecular target: T1, Nluc-NK1R (human NK1R) (Homo sapiens, UniProt P25103); test: NanoBRET saturation binding of TAMRA-NT analogs, membranes from HEK293T cells; settings: read-out: Kd for Nluc-NK1R; pH 7.4, saturation binding
[2] = system: hNK1R-407 mice; test: Capsaicin-evoked mechanical allodynia; type: in vivo, mouse; settings: 5 µL intrathecal; for duration of inhibition of capsaicin-evoked mechanical allodynia: 100 nM; for effect of higher dose on magnitude or duration of antinociception: 300 nM
[3] = pKa measurement by potentiometric titration; type: physicochemical; settings: 67% methanol aqueous solution
[4] = molecular target: T2, NK1R (Homo sapiens, UniProt P25103); test: Nuclear ERK activity, Nuc-EKAR FRET biosensor, HEK293T cells with human NK1R; type: cell-based
T2 sequence (P25103 whole entry): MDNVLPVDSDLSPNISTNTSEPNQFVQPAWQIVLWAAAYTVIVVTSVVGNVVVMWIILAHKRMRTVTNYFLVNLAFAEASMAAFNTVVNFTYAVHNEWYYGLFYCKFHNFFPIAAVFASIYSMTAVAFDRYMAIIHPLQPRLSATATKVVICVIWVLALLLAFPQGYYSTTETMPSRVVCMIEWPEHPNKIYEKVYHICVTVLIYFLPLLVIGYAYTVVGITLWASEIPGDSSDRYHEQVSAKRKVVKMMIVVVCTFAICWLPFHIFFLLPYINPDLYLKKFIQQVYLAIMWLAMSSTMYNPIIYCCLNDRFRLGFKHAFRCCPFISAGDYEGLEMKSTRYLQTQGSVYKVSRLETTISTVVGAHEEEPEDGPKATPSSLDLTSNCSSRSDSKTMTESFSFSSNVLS

[5] = molecular target: human NK1R-NP (Homo sapiens, UniProt P25103); test: NanoBiT-BRET; type: cell-based; settings: NT 30 min, n = 5
Chain of human NK1R-NP (P25103 whole entry): as above

[6] = molecular target: T2, NK1R; test: cell-based
[7] = molecular target: T1, Nluc-NK1R (human NK1R); test: biochemical; type: binding
[8] = logD experiments, distribution between octanol and aqueous buffer; type: physicochemical; settings: octanol/phosphate buffer, pH 7
[9] = molecular target: T2, NK1R; test: ebBRET of SP-evoked mGαsq recruitment to early endosomes; type: cell-based; settings: antagonist 10 µM added after 5 min SP; one phase decay
[10] = system: spinal neurons in NK1R-407 mice; design: species or system mouse; settings: spinal cord slices
[11] = system: hNK1R-407, hNK1R-311, and wild-type mice; test: SP-evoked mechanical allodynia; type: in vivo, mouse; settings: AP 100 nM/5 µL coadministered with SP 1 µg/5 µL intrathecal; hNK1R-407, hNK1R-311, wild-type mice

T1 sequence (P25103 whole entry): as above

- Kd [1]: 0.81 ± 0.065 nM
Compound: PS69: fluorescent TAMRA derivative of NT used as tracer in competition binding

Compound: PS68: fluorescent tetramethylrhodamine (TAMRA) derivative of NT, also referred to as TAMRA-NT
- Kd [1]: 1.9 ± 0.39 nM

- pKa [3]: 6.81
- IC50 [4]: 257 nM
- IC50 ([5]; pIC50, inhibition of mGαsq recruitment to NK1R-NP at the plasma membrane (CAAX), CAAX, plasma membrane): 6.46 nM
- IC50 ([5]; pIC50, inhibition of mGαsq recruitment to NK1R-NP in early endosomes (FYVE), FYVE, early endosomes): 20 nM
- IC50 [6]: 178 nM
- Ki ([7]; Binding affinity BRET (Nluc-NK1R) pKi at pH 6.0): 0.851 nM
- Ki ([7]; Ki (pH 7.4), pH 7.4, tracer PS69): 0.91 nM
- logD [8]: 4.97
- Kinetics of inhibition Endosomal miniGαsq (ebBRET) k for 10 µM [9]: 0.14 ± 0.02 (9) min^−1
Compound: Cc1ccccc1-c1cc(N2CCN(C)CC2)ncc1N(C)C(=O)C(C)(C)c1cc(C(F)(F)F)cc(C(F)(F)F)c1 [NT, netupitant]
- duration of inhibition of capsaicin-evoked mechanical allodynia [2]: 4 h
- effect of higher dose on magnitude or duration of antinociception [2]: did not further increase the magnitude or duration of the antinociception

Compound: C[C@@H](O[C@H]1OCCN(Cc2n[nH]c(=O)[nH]2)[C@H]1c1ccc(F)cc1)c1cc(C(F)(F)F)cc(C(F)(F)F)c1 [AP, aprepitant]
- duration of inhibition of capsaicin-evoked mechanical allodynia [2]: 2 h
- effect of higher dose on magnitude or duration of antinociception [2]: did not further increase the magnitude or duration of the antinociception
- effect on SP-induced excitation of spinal neurons [10]: prevented SP-induced excitation
- effect on SP-evoked mechanical allodynia [11]: abolished

Source: paper PMC10235985 (Proceedings of the National Academy of Sciences of the …, 2023)
